In ChEMBL document CHEMBL5291721, “A preclinical secondary pharmacology resource illuminates target-adverse drug reaction associations of marketed drugs” (Nat Commun, 2023):

Legend:
[1] = molecular target: cGMP-inhibited 3',5'-cyclic phosphodiesterase 3A (Homo sapiens, UniProt Q14432); assay type: functional
[2] = molecular target: T1, Alpha-2C adrenergic receptor (Homo sapiens, UniProt P18825); assay type: functional
T1 sequence (P18825 whole entry): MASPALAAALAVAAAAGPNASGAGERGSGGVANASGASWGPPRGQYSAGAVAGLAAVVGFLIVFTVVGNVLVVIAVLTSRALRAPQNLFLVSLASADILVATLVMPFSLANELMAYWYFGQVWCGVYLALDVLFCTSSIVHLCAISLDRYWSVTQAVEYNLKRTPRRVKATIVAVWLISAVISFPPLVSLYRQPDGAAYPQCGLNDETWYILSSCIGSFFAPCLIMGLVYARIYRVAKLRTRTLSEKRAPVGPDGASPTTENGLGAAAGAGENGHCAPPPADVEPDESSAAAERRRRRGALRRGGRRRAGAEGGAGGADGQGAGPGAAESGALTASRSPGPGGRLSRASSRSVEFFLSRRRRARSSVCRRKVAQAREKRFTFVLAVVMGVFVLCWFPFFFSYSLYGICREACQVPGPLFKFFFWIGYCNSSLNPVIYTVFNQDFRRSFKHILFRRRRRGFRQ

[3] = molecular target: 3',5'-cyclic-AMP phosphodiesterase 4D (Homo sapiens, UniProt Q08499); assay type: functional
[4] = molecular target: Delta-type opioid receptor (Homo sapiens, UniProt P41143)
[5] = molecular target: 5-hydroxytryptamine receptor 2B (Homo sapiens, UniProt P41595); assay type: functional, cell-based
[6] = molecular target: T2, 5-hydroxytryptamine receptor 3A (Homo sapiens, UniProt P46098); assay type: functional
T2 sequence (P46098 whole entry): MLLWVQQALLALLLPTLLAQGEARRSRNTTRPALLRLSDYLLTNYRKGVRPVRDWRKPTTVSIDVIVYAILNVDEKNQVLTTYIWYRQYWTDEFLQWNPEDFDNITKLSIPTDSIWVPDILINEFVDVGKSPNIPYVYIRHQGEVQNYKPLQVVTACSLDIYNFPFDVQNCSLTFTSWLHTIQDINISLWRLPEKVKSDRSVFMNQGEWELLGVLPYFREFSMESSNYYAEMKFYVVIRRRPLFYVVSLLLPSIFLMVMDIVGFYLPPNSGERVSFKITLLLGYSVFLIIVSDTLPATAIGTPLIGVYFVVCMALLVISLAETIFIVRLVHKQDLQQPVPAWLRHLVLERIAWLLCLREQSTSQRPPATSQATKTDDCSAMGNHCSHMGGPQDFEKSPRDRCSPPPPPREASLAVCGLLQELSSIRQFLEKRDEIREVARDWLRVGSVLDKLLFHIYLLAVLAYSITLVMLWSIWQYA

Motilin receptor = Motilin receptor (Homo sapiens, UniProt O43193)
Bile salt export pump = Bile salt export pump (Homo sapiens, UniProt O95342); assay type: functional
[7] = molecular target: Neuronal acetylcholine receptor subunit alpha-4 (Homo sapiens, UniProt P43681)
[8] = molecular target: T3, Amine oxidase [flavin-containing] A (Homo sapiens, UniProt P21397); assay type: functional
T3 sequence (P21397 whole entry): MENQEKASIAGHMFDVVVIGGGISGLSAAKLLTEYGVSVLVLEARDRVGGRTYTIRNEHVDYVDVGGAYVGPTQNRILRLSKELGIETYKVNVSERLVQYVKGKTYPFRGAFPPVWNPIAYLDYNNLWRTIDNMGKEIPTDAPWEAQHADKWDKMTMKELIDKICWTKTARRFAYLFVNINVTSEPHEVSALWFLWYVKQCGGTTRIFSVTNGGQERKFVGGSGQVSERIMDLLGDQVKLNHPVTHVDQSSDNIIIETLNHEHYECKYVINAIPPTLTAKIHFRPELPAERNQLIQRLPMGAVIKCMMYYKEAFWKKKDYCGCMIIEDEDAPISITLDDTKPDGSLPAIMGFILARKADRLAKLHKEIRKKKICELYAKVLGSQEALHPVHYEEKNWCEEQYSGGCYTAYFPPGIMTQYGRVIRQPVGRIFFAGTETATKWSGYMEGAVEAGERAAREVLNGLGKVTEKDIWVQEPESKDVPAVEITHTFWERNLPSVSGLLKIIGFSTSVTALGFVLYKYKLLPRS

[9] = molecular target: T4, Type-1 angiotensin II receptor (Homo sapiens, UniProt P30556)
T4 sequence (P30556 whole entry): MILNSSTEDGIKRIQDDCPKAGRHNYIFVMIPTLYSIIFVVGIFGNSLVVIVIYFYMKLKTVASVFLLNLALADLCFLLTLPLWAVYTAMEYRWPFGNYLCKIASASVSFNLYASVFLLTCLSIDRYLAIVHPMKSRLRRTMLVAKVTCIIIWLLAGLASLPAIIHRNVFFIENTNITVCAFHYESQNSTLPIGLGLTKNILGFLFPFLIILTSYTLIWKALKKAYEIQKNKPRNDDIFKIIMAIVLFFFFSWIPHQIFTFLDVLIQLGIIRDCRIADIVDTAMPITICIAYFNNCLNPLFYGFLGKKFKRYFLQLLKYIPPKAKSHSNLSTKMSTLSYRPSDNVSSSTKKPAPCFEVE

Adenosine receptor A3 = molecular target: T5, Adenosine receptor A3 (Homo sapiens, UniProt P0DMS8)
T5 sequence (P0DMS8 whole entry): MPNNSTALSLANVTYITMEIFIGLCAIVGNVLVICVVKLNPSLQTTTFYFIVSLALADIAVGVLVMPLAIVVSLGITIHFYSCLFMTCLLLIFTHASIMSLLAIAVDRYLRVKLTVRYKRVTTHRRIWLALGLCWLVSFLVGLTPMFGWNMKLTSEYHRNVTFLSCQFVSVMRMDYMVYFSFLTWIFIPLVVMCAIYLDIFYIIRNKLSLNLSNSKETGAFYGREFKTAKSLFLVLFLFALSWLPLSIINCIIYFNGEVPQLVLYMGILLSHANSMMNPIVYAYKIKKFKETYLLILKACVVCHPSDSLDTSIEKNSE

D(3) dopamine receptor = D(3) dopamine receptor (Homo sapiens, UniProt P35462)
[10] = molecular target: Sodium-dependent noradrenaline transporter (Homo sapiens, UniProt P23975)
Note: assay procedure not described here.

D(3) dopamine receptor, sequence (P35462 whole entry): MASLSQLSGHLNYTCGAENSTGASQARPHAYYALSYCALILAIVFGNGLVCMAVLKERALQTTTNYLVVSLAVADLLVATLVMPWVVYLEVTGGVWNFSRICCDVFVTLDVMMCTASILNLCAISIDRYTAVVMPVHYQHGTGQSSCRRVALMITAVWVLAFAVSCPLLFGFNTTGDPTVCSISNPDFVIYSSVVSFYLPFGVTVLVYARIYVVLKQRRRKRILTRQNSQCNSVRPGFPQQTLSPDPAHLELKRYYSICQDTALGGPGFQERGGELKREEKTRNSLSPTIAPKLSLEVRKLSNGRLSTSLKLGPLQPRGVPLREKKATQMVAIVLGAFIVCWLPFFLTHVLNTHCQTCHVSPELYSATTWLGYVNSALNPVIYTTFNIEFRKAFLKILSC
Delta-type opioid receptor, sequence (P41143 whole entry): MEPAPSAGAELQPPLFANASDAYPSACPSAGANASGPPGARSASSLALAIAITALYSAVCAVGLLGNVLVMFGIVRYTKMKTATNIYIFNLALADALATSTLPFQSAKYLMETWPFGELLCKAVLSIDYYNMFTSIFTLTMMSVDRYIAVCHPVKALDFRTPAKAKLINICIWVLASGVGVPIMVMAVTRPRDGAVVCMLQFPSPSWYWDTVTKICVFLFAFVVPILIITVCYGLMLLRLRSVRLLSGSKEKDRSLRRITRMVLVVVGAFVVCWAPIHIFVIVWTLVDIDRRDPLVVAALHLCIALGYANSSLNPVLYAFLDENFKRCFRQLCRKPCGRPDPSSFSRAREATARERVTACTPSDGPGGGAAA
Neuronal acetylcholine receptor subunit alpha-4, sequence (P43681 whole entry): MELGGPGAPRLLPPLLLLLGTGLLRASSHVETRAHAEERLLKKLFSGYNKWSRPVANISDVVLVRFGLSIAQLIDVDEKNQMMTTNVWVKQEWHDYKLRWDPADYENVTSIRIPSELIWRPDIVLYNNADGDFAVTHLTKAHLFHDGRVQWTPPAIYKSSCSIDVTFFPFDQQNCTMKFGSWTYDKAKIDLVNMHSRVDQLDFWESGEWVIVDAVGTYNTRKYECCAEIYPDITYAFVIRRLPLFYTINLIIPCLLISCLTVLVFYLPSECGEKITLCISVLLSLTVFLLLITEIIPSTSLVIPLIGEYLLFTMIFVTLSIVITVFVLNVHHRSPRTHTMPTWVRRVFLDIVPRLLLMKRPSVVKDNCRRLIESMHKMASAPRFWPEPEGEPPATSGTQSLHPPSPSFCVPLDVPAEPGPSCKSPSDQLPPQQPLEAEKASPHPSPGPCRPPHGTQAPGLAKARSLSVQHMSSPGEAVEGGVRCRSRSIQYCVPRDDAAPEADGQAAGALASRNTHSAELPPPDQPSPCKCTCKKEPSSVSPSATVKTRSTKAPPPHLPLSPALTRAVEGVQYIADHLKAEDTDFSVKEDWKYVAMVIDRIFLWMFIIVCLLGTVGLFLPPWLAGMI
Sodium-dependent noradrenaline transporter, sequence (P23975 whole entry): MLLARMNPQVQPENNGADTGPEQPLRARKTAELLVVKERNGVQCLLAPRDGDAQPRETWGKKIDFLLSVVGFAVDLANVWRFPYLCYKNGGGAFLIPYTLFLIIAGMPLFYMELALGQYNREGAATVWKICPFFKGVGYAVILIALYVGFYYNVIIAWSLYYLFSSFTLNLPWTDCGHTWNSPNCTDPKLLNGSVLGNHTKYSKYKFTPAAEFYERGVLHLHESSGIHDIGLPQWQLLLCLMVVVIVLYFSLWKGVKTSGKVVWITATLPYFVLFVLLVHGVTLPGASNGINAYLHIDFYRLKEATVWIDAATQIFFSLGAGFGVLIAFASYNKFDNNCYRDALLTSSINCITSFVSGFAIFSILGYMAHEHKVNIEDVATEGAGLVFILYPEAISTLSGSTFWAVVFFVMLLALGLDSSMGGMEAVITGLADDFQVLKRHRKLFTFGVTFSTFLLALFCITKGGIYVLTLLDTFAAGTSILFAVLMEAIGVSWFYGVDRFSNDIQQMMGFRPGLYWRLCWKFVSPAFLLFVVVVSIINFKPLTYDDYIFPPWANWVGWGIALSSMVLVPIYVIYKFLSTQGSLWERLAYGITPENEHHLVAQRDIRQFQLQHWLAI
5-hydroxytryptamine receptor 2B, sequence (P41595 whole entry): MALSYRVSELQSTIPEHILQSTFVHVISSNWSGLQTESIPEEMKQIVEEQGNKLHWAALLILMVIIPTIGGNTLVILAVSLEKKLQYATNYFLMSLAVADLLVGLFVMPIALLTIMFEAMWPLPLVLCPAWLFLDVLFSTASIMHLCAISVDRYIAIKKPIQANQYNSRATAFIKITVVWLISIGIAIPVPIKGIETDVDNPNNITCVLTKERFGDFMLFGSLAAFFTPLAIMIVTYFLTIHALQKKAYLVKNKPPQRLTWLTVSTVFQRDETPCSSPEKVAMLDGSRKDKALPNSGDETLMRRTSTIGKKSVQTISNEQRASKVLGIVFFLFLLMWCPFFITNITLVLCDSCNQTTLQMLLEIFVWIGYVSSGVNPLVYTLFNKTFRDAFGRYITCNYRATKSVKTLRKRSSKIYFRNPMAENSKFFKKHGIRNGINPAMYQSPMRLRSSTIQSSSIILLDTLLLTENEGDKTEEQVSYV
cGMP-inhibited 3',5'-cyclic phosphodiesterase 3A, sequence (Q14432 whole entry): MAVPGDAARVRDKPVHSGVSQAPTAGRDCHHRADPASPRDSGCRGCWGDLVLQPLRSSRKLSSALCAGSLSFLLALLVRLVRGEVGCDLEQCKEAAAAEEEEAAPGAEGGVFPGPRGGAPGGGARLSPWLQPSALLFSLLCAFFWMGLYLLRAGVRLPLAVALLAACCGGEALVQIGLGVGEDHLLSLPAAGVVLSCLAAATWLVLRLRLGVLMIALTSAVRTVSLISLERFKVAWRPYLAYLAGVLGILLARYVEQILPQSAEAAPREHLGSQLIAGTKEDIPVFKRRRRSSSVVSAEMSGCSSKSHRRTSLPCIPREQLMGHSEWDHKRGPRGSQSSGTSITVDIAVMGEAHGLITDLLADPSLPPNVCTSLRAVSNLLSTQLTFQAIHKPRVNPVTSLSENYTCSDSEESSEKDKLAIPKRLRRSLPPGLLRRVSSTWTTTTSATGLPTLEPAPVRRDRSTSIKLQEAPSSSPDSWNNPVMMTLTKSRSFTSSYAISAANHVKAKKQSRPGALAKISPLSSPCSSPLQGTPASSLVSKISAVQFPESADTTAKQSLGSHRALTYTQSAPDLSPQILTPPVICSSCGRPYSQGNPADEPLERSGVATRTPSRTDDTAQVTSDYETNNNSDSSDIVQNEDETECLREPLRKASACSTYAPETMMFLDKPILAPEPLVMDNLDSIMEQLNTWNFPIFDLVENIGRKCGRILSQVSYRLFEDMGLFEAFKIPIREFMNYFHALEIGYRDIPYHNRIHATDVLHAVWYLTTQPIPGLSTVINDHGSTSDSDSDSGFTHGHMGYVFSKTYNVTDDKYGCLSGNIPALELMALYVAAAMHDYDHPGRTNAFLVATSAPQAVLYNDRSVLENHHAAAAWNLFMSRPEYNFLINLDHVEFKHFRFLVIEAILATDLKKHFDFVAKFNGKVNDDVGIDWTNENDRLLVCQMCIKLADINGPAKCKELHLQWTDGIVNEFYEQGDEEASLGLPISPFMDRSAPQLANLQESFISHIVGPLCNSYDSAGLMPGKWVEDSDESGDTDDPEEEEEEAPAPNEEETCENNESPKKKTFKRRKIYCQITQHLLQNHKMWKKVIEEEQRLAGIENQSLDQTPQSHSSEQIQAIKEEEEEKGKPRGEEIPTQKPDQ
Motilin receptor, sequence (O43193 whole entry): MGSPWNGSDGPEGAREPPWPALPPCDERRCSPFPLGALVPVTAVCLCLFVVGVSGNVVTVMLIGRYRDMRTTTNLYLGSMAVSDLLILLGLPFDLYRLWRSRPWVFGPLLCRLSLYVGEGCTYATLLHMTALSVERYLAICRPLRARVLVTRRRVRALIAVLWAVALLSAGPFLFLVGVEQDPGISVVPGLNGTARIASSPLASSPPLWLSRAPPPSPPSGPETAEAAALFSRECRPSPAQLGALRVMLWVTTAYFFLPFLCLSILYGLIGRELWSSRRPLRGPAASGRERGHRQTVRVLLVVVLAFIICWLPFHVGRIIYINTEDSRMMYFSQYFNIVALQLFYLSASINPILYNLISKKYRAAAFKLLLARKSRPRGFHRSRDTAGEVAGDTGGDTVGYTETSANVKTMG
3',5'-cyclic-AMP phosphodiesterase 4D, sequence (Q08499 whole entry): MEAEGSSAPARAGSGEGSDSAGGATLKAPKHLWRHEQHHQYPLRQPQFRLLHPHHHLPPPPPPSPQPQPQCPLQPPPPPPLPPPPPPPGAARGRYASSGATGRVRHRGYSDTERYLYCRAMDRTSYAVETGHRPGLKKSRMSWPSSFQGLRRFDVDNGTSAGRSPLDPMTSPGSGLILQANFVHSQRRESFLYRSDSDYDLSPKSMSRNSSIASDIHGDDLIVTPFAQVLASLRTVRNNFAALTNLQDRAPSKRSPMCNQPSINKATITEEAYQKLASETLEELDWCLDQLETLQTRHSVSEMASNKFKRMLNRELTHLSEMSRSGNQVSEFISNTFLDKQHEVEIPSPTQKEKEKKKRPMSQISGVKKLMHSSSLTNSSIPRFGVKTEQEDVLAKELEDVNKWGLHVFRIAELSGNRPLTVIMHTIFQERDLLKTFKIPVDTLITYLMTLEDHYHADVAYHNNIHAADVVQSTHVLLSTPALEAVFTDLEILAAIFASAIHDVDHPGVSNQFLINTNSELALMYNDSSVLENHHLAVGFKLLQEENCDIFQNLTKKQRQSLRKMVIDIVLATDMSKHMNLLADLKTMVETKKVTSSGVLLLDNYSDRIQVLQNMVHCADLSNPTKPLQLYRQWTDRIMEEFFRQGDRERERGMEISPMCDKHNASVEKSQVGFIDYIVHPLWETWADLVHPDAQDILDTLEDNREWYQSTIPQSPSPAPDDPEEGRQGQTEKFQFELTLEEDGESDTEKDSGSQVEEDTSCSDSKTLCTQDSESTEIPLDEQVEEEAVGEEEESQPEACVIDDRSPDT

Row | Compound | AC50 [1] [µM] | AC50 [2] [µM] | AC50 [3] [µM] | AC50 [4] [µM] | AC50 [5] [µM] | AC50 [6] [µM] | AC50 (Motilin receptor) [µM] | AC50 (Bile salt export pump) [µM] | AC50 [7] [µM] | AC50 [8] [µM] | AC50 [9] [µM] | AC50 (Adenosine receptor A3) [µM] | AC50 (D(3) dopamine receptor) [µM] | AC50 [10] [µM]
1 | C#CCN(C)Cc1ccccc1 [PARGYLINE] | > 30 | > 30 | > 30 | > 30 | > 30 | > 30 |  |  |  |  |  |  |  | 
2 | CC(C)(CO)c1cc2cc(NC(=O)C3(c4ccc5c(c4)OC(F)(F)O5)CC3)c(F)cc2n1C[C@@H](O)CO [TEZACAFTOR] | > 30 | > 30 | 8.7 | > 30 | > 30 | > 30 | > 30 | > 10 | > 30 | > 30 | > 30 | > 30 | > 30 | > 30
3 | CCN(CC)CCn1c(=O)c(Cc2ccc(OC)cc2)nc2ccccc21 [CAROVERINE] | > 30 | 21.5 | 7.11 | 26 | > 30 | 29 | 16.8 | > 300 | > 30 | > 30 | > 30 | 27 | 7.34 | > 30
4 | CCCCCCO[C@@H](C)c1cccc(-c2csc(NC(=O)c3cc(Cl)c(/C=C(\C)C(=O)O)c(Cl)c3)n2)c1OC [LUSUTROMBOPAG] |  |  |  |  |  |  |  | 4 |  |  |  |  |  | 
5 | O=P1(N(CCCl)CCCl)NCCCO1 (centres undefined) [CYCLOPHOSPHAMIDE ANHYDROUS] |  |  |  |  |  |  |  | > 300 |  |  |  |  |  | 
6 | C=CCOc1ccc(CC(=O)O)cc1Cl [ALCLOFENAC] |  |  |  |  |  |  |  | > 300 |  |  |  |  |  | 
7 | CCN(CCO)CCCC(C)Nc1ccnc2cc(Cl)ccc12 (centres undefined) [HYDROXYCHLOROQUINE] | > 30 |  | > 30 | > 30 | > 10 | > 30 | > 10 | > 300 | > 10 | > 10 | > 10 | > 10 | > 30 | > 10
8 | N#Cc1ccnc(N2C(=O)CC[C@H]2C(=O)N(c2cncc(F)c2)[C@H](C(=O)NC2CC(F)(F)C2)c2ccccc2Cl)c1 [IVOSIDENIB] |  |  |  |  |  |  |  | 79 |  |  |  |  |  | 
9 | OC[C@H]1NC[C@H](O)[C@@H](O)[C@H]1O |  |  |  |  |  |  |  | > 300 |  |  |  |  |  | 
10 | CS(=O)(=O)Nc1ccc([N+](=O)[O-])cc1Oc1ccccc1 [NIMESULIDE] | > 30 | > 30 | > 30 | > 30 | > 30 | > 30 | 27 | 110 | 21 | > 30 | 20 |  | > 30 | 19
11 | O=c1[nH]c2ccccc2n1CCN1CCN(c2cccc(C(F)(F)F)c2)CC1 [FLIBANSERIN] |  |  |  |  |  |  |  | 29 |  |  |  |  |  | 
12 | CC(C)NCC(O)COc1ccc(CC(N)=O)cc1 (centres undefined) [ATENOLOL] | > 30 | > 30 | > 30 | > 30 |  | > 30 | > 30 | > 300 | > 30 | > 30 | > 30 | > 30 | > 30 | > 30
13 | c1cnc2cc3c(cc2n1)[C@@H]1CNC[C@H]3C1 [VARENICLINE] | > 30 | > 30 | > 30 | > 30 | > 30 | 13 | > 30 | > 300 |  | > 30 | > 30 | > 30 | > 30 | > 30
14 | CN1CCN(C(c2ccccc2)c2ccc(Cl)cc2)CC1 (centres undefined) [CHLORCYCLIZINE] |  |  |  |  |  |  |  | > 300 |  |  |  |  |  | 
15 | CN(C)CCCC1(c2ccc(F)cc2)OCc2cc(C#N)ccc21 (centres undefined) [CITALOPRAM] | > 30 | > 10 | > 30 | > 30 | > 30 | > 30 | > 10 | > 300 |  | > 10 | > 30 | > 30 |  | 
16 | O=NN(CCCl)C(=O)NC1CCCCC1 [LOMUSTINE] |  |  |  |  |  |  |  | > 300 |  |  |  |  |  | 
17 | CCCCCCCC/C=C\CCCCCCCC(=O)O [OLEIC ACID] |  |  |  |  |  |  |  | 260 |  |  |  |  |  | 
18 | CN(C)CCC=C1c2ccccc2CCc2ccccc21 [AMITRIPTYLINE] | > 30 | 0.29 | > 30 | > 30 |  | 8.7 | > 30 | 180 | > 30 | > 10 | 1.4 | 14.1 | 0.44 | 
19 | CC1=C(C/C=C(\C)CCC[C@H](C)CCC[C@H](C)CCCC(C)C)C(=O)c2ccccc2C1=O [PHYTONADIONE] |  |  |  |  |  |  |  | 160 |  |  |  |  |  | 
20 | CC(=O)NC[C@H]1CN(c2ccc(N3CCOCC3)c(F)c2)C(=O)O1 [LINEZOLID] | > 30 | > 30 | > 30 | > 30 |  | > 30 |  | > 300 | > 30 | > 30 | > 30 | > 30 | > 30 | 
21 | CN(C)CCN(Cc1ccccc1)c1ccccn1 [TRIPELENNAMINE] | > 10 | 9.4 | > 10 | > 30 | > 10 | > 30 | > 10 |  | > 10 | > 10 | > 10 | > 10 | > 10 | 13.4
22 | Cc1cc(C)cc(OCC2CNC(=O)O2)c1 (centres undefined) [METAXALONE] |  |  |  |  |  |  |  | > 300 |  |  |  |  |  | 
23 | O=c1[nH]cc(F)c(=O)[nH]1 [FLUOROURACIL] |  |  |  |  |  |  | > 30 |  | > 30 |  | > 30 | > 30 |  | > 30
24 | Cc1ccc(C(C)C)c(O)c1 [THYMOL] |  |  |  |  |  |  |  | > 300 |  |  |  |  |  | 
25 | O=C(Cc1cccs1)N[C@@H]1C(=O)N2C(C(=O)[O-])=C(C[n+]3ccccc3)CS[C@H]12 [CEPHALORIDINE] | > 30 | > 30 | > 30 | > 30 | > 30 | > 30 |  |  |  | > 30 |  |  | > 30 | 
26 | O=C(O)[C@@H](S)[C@@H](S)C(=O)O |  |  |  |  |  |  |  | 50 |  |  |  |  |  | 
